According to ChEMBL document CHEMBL2010660, “Synthesis, SAR and biological evaluation of 1,6-disubstituted-1H-pyrazolo[3,4-d]pyrimidines as dual inhibitors of Aurora kinases and CDK1” (Bioorg Med Chem Lett, 2012):
The source made the active and inactive calls. The rule behind the calls is not given here.

Key:
Aurora kinase A = biological target: T1, Aurora kinase A (Homo sapiens, UniProt O14965); experiment: Inhibition of aurora A kinase
T1 sequence (O14965 whole entry): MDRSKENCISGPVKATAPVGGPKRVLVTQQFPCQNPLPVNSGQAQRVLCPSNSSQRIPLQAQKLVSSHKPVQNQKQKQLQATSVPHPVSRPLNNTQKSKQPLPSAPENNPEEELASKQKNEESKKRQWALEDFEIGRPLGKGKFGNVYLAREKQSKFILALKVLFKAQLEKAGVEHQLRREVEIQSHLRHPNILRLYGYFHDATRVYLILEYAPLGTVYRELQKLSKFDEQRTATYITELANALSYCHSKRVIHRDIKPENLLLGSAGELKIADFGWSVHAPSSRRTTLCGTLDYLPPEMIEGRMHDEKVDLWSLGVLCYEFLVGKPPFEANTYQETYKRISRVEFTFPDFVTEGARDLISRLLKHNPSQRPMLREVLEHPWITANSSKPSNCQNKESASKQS

Aurora kinase B [1] = biological target: T2, Aurora kinase B (Homo sapiens, UniProt Q96GD4); experiment: Inhibition of aurora B kinase
T2 sequence (Q96GD4 whole entry): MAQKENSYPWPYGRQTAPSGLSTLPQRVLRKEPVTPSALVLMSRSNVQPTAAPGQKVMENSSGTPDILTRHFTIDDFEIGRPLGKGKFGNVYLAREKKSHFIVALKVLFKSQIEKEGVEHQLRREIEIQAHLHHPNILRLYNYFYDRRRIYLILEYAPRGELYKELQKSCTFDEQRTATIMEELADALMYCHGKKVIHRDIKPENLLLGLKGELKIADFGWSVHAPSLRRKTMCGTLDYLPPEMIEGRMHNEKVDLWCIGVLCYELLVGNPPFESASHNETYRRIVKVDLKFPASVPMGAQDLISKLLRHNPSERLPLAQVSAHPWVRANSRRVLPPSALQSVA

[2] = biological target: Cyclin-dependent kinase 1 (Homo sapiens, UniProt P06493); experiment: Inhibition of CDK1
Sequence of Cyclin-dependent kinase 1 (P06493 whole entry): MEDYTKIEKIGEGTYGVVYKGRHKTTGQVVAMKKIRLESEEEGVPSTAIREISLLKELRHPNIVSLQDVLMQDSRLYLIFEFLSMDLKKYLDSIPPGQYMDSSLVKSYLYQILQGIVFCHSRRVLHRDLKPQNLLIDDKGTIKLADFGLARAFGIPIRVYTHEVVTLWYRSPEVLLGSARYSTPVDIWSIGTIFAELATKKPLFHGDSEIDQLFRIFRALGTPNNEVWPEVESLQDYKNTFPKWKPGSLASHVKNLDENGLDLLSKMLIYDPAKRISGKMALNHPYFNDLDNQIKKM

HCT-116 [3] = experiment: Cytotoxicity against human HCT116 cells after 5 days by MTS assay; assay type: functional, cell-based; details: HCT-116, 120 h
[4] = Metabolic stability in mouse liver microsome assessed as ratio of clearance to hepatic blood flow; assay type: ADME; details: liver microsomes, read-out: QH
HCT-116 [5] = experiment: Cell cycle arrest in human HCT116 cells assessed as minimum concentration required for G2/M versus G1 peak ratio over 2; assay type: functional
[6] = Toxicity in human BMNC assessed as granulocyte/monocyte colony forming units ratio after 14 days by microscopic analysis; details: 336 h
[7] = biological target: T3, Aurora kinase A (Homo sapiens) (UniProt O14965); experiment: Inhibition of aurora A kinase phosphorylation in human K562 cells at 0.003 to 1 uM by Western blot analysis; assay type: cell-based
T3 sequence (whole entry): T1 sequence (O14965 whole entry)

Aurora kinase B [8] = biological target: T2, Aurora kinase B; experiment: Inhibition of aurora B kinase phosphorylation in human K562 cells at 0.003 to 1 uM by Western blot analysis; assay type: cell-based
[9] = Half life in mouse at 25 mg/kg, ip; assay type: ADME, organism-based; parameters: dose 25 mg/kg, route intraperitoneal; details: in vivo
[10] = AUC in mouse at 25 mg/kg, ip; assay type: ADME, organism-based; parameters: dose 25 mg/kg, route intraperitoneal; details: plasma
[11] = Clearance in mouse at 25 mg/kg, ip; assay type: ADME, organism-based; parameters: dose 25 mg/kg, route intraperitoneal; details: in vivo
Mus musculus [12] = experiment: Apparent volume of distribution in mouse at 25 mg/kg, ip; assay type: ADME, organism-based; parameters: dose 25 mg/kg, route intraperitoneal; details: in vivo
Rattus norvegicus [13] = experiment: Half life in rat at 4 mg/kg, iv; assay type: ADME, organism-based; parameters: dose 4 mg/kg, route intravenous; details: in vivo
[14] = AUC in rat at 4 mg/kg, iv; assay type: ADME, organism-based; parameters: dose 4 mg/kg, route intravenous; details: plasma
Rattus norvegicus [15] = experiment: Apparent volume of distribution in rat at 4 mg/kg, iv; assay type: ADME, organism-based; parameters: dose 4 mg/kg, route intravenous; details: in vivo
Mus musculus [16] = experiment: Inhibition of CDK1 in mouse serum assessed as decrease in histone H1 phosphorylation at 25 mg/kg, ip measured after 2 hrs; assay type: functional; details: route intraperitoneal
Mus musculus [17] = experiment: Inhibition of CDK1 in mouse serum assessed as decrease in histone H3 phosphorylation at 25 mg/kg, ip measured after 2 hrs; assay type: functional; details: route intraperitoneal
Mus musculus [18] = experiment: Inhibition of aurora A kinase in mouse assessed as increase in histone H3 phosphorylation at 25 mg/kg, ip measured after 6 hrs; assay type: functional, organism-based; parameters: dose 25 mg/kg
Mus musculus [19] = experiment: Inhibition of aurora A in mouse assessed as increase in histone H3 phosphorylation at 25 mg/kg, ip measured after 9 hrs; assay type: functional, organism-based; parameters: dose 25 mg/kg
HCT-116 [20] = experiment: Antitumor activity against human HCT116 cells xenografted in nu/nu mouse assessed as tumor growth inhibition at 12.5 to 40 mg/kg, ip qd for 21 days; assay type: functional; details: dose mg/kg 12.5-40; route intraperitoneal
Mus musculus [21] = experiment: Toxicity in nu/nu mouse xenografted with human HCT116 cells assessed as weight loss at 12.5 to 40 mg/kg, ip qd for 21 days; assay type: organism-based, HCT-116; parameters: dose 12.5-40 mg/kg, route intraperitoneal; details: in vivo, 504 h
Mus musculus [22] = experiment: Toxicity in nu/nu mouse xenografted with human HCT116 cells assessed as reluctance to move at 12.5 to 40 mg/kg, ip qd for 21 days; assay type: organism-based, HCT-116; parameters: dose 12.5-40 mg/kg, route intraperitoneal; details: in vivo, 504 h
Mus musculus [23] = experiment: Toxicity in nu/nu mouse xenografted with human HCT116 cells assessed as hunched posture at 12.5 to 40 mg/kg, ip qd for 21 days; assay type: organism-based, HCT-116; parameters: dose 12.5-40 mg/kg, route intraperitoneal; details: in vivo, 504 h
Mus musculus [24] = experiment: Toxicity in nu/nu mouse xenografted with human HCT116 cells assessed as mortality at 12.5 to 40 mg/kg, ip qd for 21 days; assay type: organism-based, HCT-116; parameters: dose 12.5-40 mg/kg, route intraperitoneal; details: in vivo, 504 h

SMILES | IC50 (Aurora kinase A) [nM] | IC50 (Aurora kinase B [1]) [nM] | IC50 [2] [nM] | hepatic extraction ratio [4] | IC50 (HCT-116 [3]) [nM] | Activity (HCT-116 [5]) [µM] | further results
Cn1cc(Nc2ncc3cnn([C@H]4CC[C@H]5CCC[C@H]54)c3n2)cc1C(N)=O | 21 | 12 | 16 | 0.76 | 230 | 0.3 | 
Cn1cc(Nc2ncc3cnn([C@@H]4C[C@H]5C[C@H]5C4)c3n2)cc1C(=O)N1CCC[C@H]1CN1CCOCC1 | 3 | 4 | 21 |  | 8 | 0.017 | 
COC[C@@H]1CCCN1C(=O)c1cc(Nc2ncc3cnn([C@@H]4C[C@H]5C[C@H]5C4)c3n2)cn1C | 4 | 5 | 22 |  | 10 | 0.03 | Ratio [6]: 32; inhibition [7]: Active; inhibition (Aurora kinase B [8]): Active; half-life [9]: 1 h; AUC [10]: 6420 ng·h/mL; CL/F [11]: 65 mL/min/kg; Vz (Mus musculus [12]): 3 L/kg; t1/2 (Rattus norvegicus [13]): 5 h; AUC [14]: 1230 ng·h/mL; Vz (Rattus norvegicus [15]): 5 L/kg; inhibition in vivo at 25 mg/kg (Mus musculus [16]): 60%; inhibition in vivo at 25 mg/kg (Mus musculus [17]): 90%; inhibition (Mus musculus [18]): Active; inhibition (Mus musculus [19]): Active; TGI (HCT-116 [20]): 30%; Activity (Mus musculus [21]): 2%; Activity (Mus musculus [22]): Toxic; Activity (Mus musculus [23]): Toxic; Activity (Mus musculus [24]): Toxic
O=C1N=C(NCc2cccs2)S/C1=C\c1ccc2ncccc2c1 |  |  |  |  | 3200 |  | 
Cn1cc(Nc2ncc3cnn([C@@H]4CC[C@H]5CCC[C@H]54)c3n2)cc1C(N)=O | 13 | 22 | 13 | 0.85 | 66 | 0.1 | 
Cn1cc(Nc2ncc3cnn(C4CCC(C)(C)CC4)c3n2)cc1C(N)=O | 30 | 5 | 24 | 0.92 | 100 | 0.1 | 
CC(C)n1ncc2cnc(Nc3cc(C(N)=O)n(C)c3)nc21 | 230 | 38 | 160 | 0.27 | 1000 | 1 | 
Cn1cc(Nc2ncc3cnn([C@@H]4C[C@H]5C[C@H]5C4)c3n2)cc1C(=O)N1CCC[C@@H]1CN1CCOCC1 | 1.5 | 4 | 390 |  | 24 | 0.03 | 
Cn1cc(Nc2ncc3cnn([C@@H]4C[C@H]5C[C@H]5C4)c3n2)cc1C(=O)N1CCC[C@H]1CN1CCCC1 | 10 | 5 | 47 |  | 11 | 0.03 | 
O=C(O)c1ccc(Nc2ncc3c(n2)-c2ccc(Cl)cc2C(c2c(F)cccc2F)=NC3)cc1 [MLN-8054] |  |  |  |  | 690 |  | 
Cn1cc(Nc2ncc3cnn(C4CCC5(CC4)CC5)c3n2)cc1C(N)=O | 40 | 5 | 19 | 0.89 | 120 | 0.3 | 

Continued, in another order:

IC50 (Aurora kinase A) [nM] | IC50 (Aurora kinase B [1]) [nM] | IC50 [2] [nM] | hepatic extraction ratio [4] | SMILES | IC50 (HCT-116 [3]) [nM] | Activity (HCT-116 [5]) [µM] | further results
17 | 4 | 24 | 0.69 | Cn1cc(Nc2ncc3cnn([C@@H]4C[C@H]5C[C@H]5C4)c3n2)cc1C(N)=O | 79 | 0.1 | 
100 | 36 | 150 |  | Cn1cc(Nc2ncc3cnn([C@@H]4C[C@H]5C[C@H]5C4)c3n2)cc1C(=O)N1CCC[C@@H]1CO | 170 | 0.1 | 
4 | 3 | 10 |  | Cn1cc(Nc2ncc3cnn([C@@H]4C[C@H]5C[C@H]5C4)c3n2)cc1C(=O)N1CCC[C@H]1CO | 18 | 0.01 | 
25 | 18 | 38 | 0.89 | Cn1cc(Nc2ncc3cnn(C4C5CC6CC(C5)CC4C6)c3n2)cc1C(N)=O (stereo not given) | 270 | 0.3 | 
17 | 40 | 41 |  | Cn1cc(Nc2ncc3cnn([C@@H]4C[C@H]5C[C@H]5C4)c3n2)cc1C(=O)N1CCCC1 | 95 | 0.1 | 
19 | 4 | 1700 |  | CN(C)C(=O)[C@@H]1CCCN1C(=O)c1cc(Nc2ncc3cnn([C@@H]4C[C@H]5C[C@H]5C4)c3n2)cn1C | 160 | 0.1 | 
150 | 19 | 50 | 0.89 | Cn1cc(Nc2ncc3cnn(C4CCC5(CC5)C4)c3n2)cc1C(N)=O (stereo not given) | 290 | 0.65 | 
2 | 4 | 40 |  | C[C@@H]1CCCN1C(=O)c1cc(Nc2ncc3cnn([C@@H]4C[C@H]5C[C@H]5C4)c3n2)cn1C | 130 | 0.03 | 
87 | 23 | 15 | 0.87 | Cn1cc(Nc2ncc3cnn(C4CCCCCC4)c3n2)cc1C(N)=O | 140 | 0.23 | 
6 | 4 | 10 |  | Cn1cc(Nc2ncc3cnn([C@@H]4C[C@H]5C[C@H]5C4)c3n2)cc1C(=O)N1CCC[C@H]1C(N)=O | 47 | 0.03 | 
16 | 6 | 150 |  | COC[C@H]1CCCN1C(=O)c1cc(Nc2ncc3cnn([C@@H]4C[C@H]5C[C@H]5C4)c3n2)cn1C | 60 | 0.065 | 
80 | 50 | 1200 |  | CNC[C@@H]1CCCN1C(=O)c1cc(Nc2ncc3cnn([C@@H]4C[C@H]5C[C@H]5C4)c3n2)cn1C | 150 | 0.3 | 
